From the supplement of paper PMC10307832

Experiments:
Assay in all cases: relative viability (nuclei count vs DMSO), 5 days (fraction); higher = more cells survive
SGI-1776 + Bortezomib = compound: CN1CCC(CNc2ccc3ncc(-c4cccc(OC(F)(F)F)c4)n3n2)CC1 [SGI-1776] + CC(C)C[C@H](NC(=O)[C@H](Cc1ccccc1)NC(=O)c1cnccn1)B(O)O [Bortezomib] (partner 0.002 µM)
In short: (§1)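 Lung cancer cell lines, seeded in 1536-well plates, were treated the following day by pin tool with a single drug or with five library-drug doses (not always all listed) in √10 steps on top of a fixed anchor-drug dose. Cells were fixed and nuclei stained in one step after 5 days, and nuclei were counted. Relative viability is the nuclei count for treated wells divided by that for vehicle wells, reported as medians of duplicate plates.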

SGI-1776 + Tozasertib = compound: CN1CCC(CNc2ccc3ncc(-c4cccc(OC(F)(F)F)c4)n3n2)CC1 [SGI-1776] + Cc1cc(Nc2cc(N3CCN(C)CC3)nc(Sc3ccc(NC(=O)C4CC4)cc3)n2)n[nH]1 [Tozasertib] (partner 0.1 µM)
In short: as §1

Entinostat + Navitoclax = compound: Nc1ccccc1NC(=O)c1ccc(CNC(=O)OCc2cccnc2)cc1 [Entinostat] + CC1(C)CCC(c2ccc(Cl)cc2)=C(CN2CCN(c3ccc(C(=O)NS(=O)(=O)c4ccc(N[C@H](CCN5CCOCC5)CSc5ccccc5)c(S(=O)(=O)C(F)(F)F)c4)cc3)CC2)C1 [Navitoclax] (partner 0.5 µM)
In short: as §1

Entinostat + Pemetrexed = compound: Nc1ccccc1NC(=O)c1ccc(CNC(=O)OCc2cccnc2)cc1 [Entinostat] + Nc1nc2[nH]cc(CCc3ccc(C(=O)N[C@@H](CCC(=O)O)C(=O)O)cc3)c2c(=O)[nH]1 [Pemetrexed] (partner 0.2 µM)
In short: as §1

NCI-H3122
relative viability (SGI-1776 + Bortezomib; first compound 0.08 µM): 1.06 | relative viability (SGI-1776 + Bortezomib; first compound 0.8 µM): 1.01 | relative viability (SGI-1776 + Bortezomib; first compound 2.53 µM): 1.08 | relative viability (SGI-1776 + Bortezomib; first compound 8 µM): 1.01 | relative viability (SGI-1776 + Tozasertib; first compound 0.08 µM): 0.443 | relative viability (SGI-1776 + Tozasertib; first compound 0.8 µM): 0.343 | relative viability (SGI-1776 + Tozasertib; first compound 2.53 µM): 0.334 | relative viability (SGI-1776 + Tozasertib; first compound 8 µM): 0.2 | relative viability (Entinostat + Navitoclax; first compound 0.02 µM): 1.04 | relative viability (Entinostat + Navitoclax; first compound 0.06325 µM): 1 | relative viability (Entinostat + Navitoclax; first compound 0.2 µM): 1.12 | relative viability (Entinostat + Navitoclax; first compound 0.6325 µM): 0.989 | relative viability (Entinostat + Navitoclax; first compound 2 µM): 0.712 | relative viability (Entinostat + Pemetrexed; first compound 0.02 µM): 0.186 | relative viability (Entinostat + Pemetrexed; first compound 0.06325 µM): 0.208 | relative viability (Entinostat + Pemetrexed; first compound 0.2 µM): 0.2 | relative viability (Entinostat + Pemetrexed; first compound 0.6325 µM): 0.171 | relative viability (Entinostat + Pemetrexed; first compound 2 µM): 0.185

NCI-H2085
relative viability (SGI-1776 + Bortezomib; first compound 0.08 µM): 1.14 | relative viability (SGI-1776 + Bortezomib; first compound 0.8 µM): 1.16 | relative viability (SGI-1776 + Bortezomib; first compound 2.53 µM): 1 | relative viability (SGI-1776 + Bortezomib; first compound 8 µM): 0.922 | relative viability (SGI-1776 + Tozasertib; first compound 0.08 µM): 0.858 | relative viability (SGI-1776 + Tozasertib; first compound 0.8 µM): 0.617 | relative viability (SGI-1776 + Tozasertib; first compound 2.53 µM): 0.463 | relative viability (SGI-1776 + Tozasertib; first compound 8 µM): 0.389 | relative viability (Entinostat + Navitoclax; first compound 0.02 µM): 1 | relative viability (Entinostat + Navitoclax; first compound 0.06325 µM): 1.06 | relative viability (Entinostat + Navitoclax; first compound 0.2 µM): 1.04 | relative viability (Entinostat + Navitoclax; first compound 0.6325 µM): 0.801 | relative viability (Entinostat + Navitoclax; first compound 2 µM): 0.604 | relative viability (Entinostat + Pemetrexed; first compound 0.02 µM): 0.826 | relative viability (Entinostat + Pemetrexed; first compound 0.06325 µM): 0.918 | relative viability (Entinostat + Pemetrexed; first compound 0.2 µM): 0.869 | relative viability (Entinostat + Pemetrexed; first compound 0.6325 µM): 0.712 | relative viability (Entinostat + Pemetrexed; first compound 2 µM): 0.532

PC-14
relative viability (SGI-1776 + Bortezomib; first compound 0.08 µM): 0.846 | relative viability (SGI-1776 + Bortezomib; first compound 0.8 µM): 0.915 | relative viability (SGI-1776 + Bortezomib; first compound 2.53 µM): 0.99 | relative viability (SGI-1776 + Bortezomib; first compound 8 µM): 0.566 | relative viability (SGI-1776 + Tozasertib; first compound 0.08 µM): 0.618 | relative viability (SGI-1776 + Tozasertib; first compound 0.8 µM): 0.522 | relative viability (SGI-1776 + Tozasertib; first compound 2.53 µM): 0.452 | relative viability (SGI-1776 + Tozasertib; first compound 8 µM): 0.0803 | relative viability (Entinostat + Navitoclax; first compound 0.02 µM): 0.999 | relative viability (Entinostat + Navitoclax; first compound 0.06325 µM): 1.07 | relative viability (Entinostat + Navitoclax; first compound 0.2 µM): 1.14 | relative viability (Entinostat + Navitoclax; first compound 0.6325 µM): 0.47 | relative viability (Entinostat + Navitoclax; first compound 2 µM): 0.113 | relative viability (Entinostat + Pemetrexed; first compound 0.02 µM): 0.137 | relative viability (Entinostat + Pemetrexed; first compound 0.06325 µM): 0.163 | relative viability (Entinostat + Pemetrexed; first compound 0.2 µM): 0.139 | relative viability (Entinostat + Pemetrexed; first compound 0.6325 µM): 0.198 | relative viability (Entinostat + Pemetrexed; first compound 2 µM): 0.146

NCI-H1355
relative viability (SGI-1776 + Bortezomib; first compound 0.08 µM): 1.2 | relative viability (SGI-1776 + Bortezomib; first compound 0.8 µM): 1.24 | relative viability (SGI-1776 + Bortezomib; first compound 2.53 µM): 1.24 | relative viability (SGI-1776 + Bortezomib; first compound 8 µM): 1.03 | relative viability (SGI-1776 + Tozasertib; first compound 0.08 µM): 0.591 | relative viability (SGI-1776 + Tozasertib; first compound 0.8 µM): 0.408 | relative viability (SGI-1776 + Tozasertib; first compound 2.53 µM): 0.305 | relative viability (SGI-1776 + Tozasertib; first compound 8 µM): 0.217 | relative viability (Entinostat + Navitoclax; first compound 0.02 µM): 0.987 | relative viability (Entinostat + Navitoclax; first compound 0.06325 µM): 0.946 | relative viability (Entinostat + Navitoclax; first compound 0.2 µM): 0.747 | relative viability (Entinostat + Navitoclax; first compound 0.6325 µM): 0.583 | relative viability (Entinostat + Navitoclax; first compound 2 µM): 0.444 | relative viability (Entinostat + Pemetrexed; first compound 0.02 µM): 0.99 | relative viability (Entinostat + Pemetrexed; first compound 0.06325 µM): 0.945 | relative viability (Entinostat + Pemetrexed; first compound 0.2 µM): 0.874 | relative viability (Entinostat + Pemetrexed; first compound 0.6325 µM): 0.749 | relative viability (Entinostat + Pemetrexed; first compound 2 µM): 0.614

NCI-H1650
relative viability (SGI-1776 + Bortezomib; first compound 0.08 µM): 0.217 | relative viability (SGI-1776 + Bortezomib; first compound 0.8 µM): 0.18 | relative viability (SGI-1776 + Bortezomib; first compound 2.53 µM): 0.207 | relative viability (SGI-1776 + Bortezomib; first compound 8 µM): 0.181 | relative viability (SGI-1776 + Tozasertib; first compound 0.08 µM): 0.374 | relative viability (SGI-1776 + Tozasertib; first compound 0.8 µM): 0.287 | relative viability (SGI-1776 + Tozasertib; first compound 2.53 µM): 0.214 | relative viability (SGI-1776 + Tozasertib; first compound 8 µM): 0.226 | relative viability (Entinostat + Navitoclax; first compound 0.02 µM): 1.2 | relative viability (Entinostat + Navitoclax; first compound 0.06325 µM): 1.28 | relative viability (Entinostat + Navitoclax; first compound 0.2 µM): 1.1 | relative viability (Entinostat + Navitoclax; first compound 0.6325 µM): 0.673 | relative viability (Entinostat + Navitoclax; first compound 2 µM): 0.673 | relative viability (Entinostat + Pemetrexed; first compound 0.02 µM): 0.389 | relative viability (Entinostat + Pemetrexed; first compound 0.06325 µM): 0.455 | relative viability (Entinostat + Pemetrexed; first compound 0.2 µM): 0.44 | relative viability (Entinostat + Pemetrexed; first compound 0.6325 µM): 0.359 | relative viability (Entinostat + Pemetrexed; first compound 2 µM): 0.241

NCI-H1755
relative viability (SGI-1776 + Bortezomib; first compound 0.08 µM): 0.932 | relative viability (SGI-1776 + Bortezomib; first compound 0.8 µM): 0.953 | relative viability (SGI-1776 + Bortezomib; first compound 2.53 µM): 0.971 | relative viability (SGI-1776 + Bortezomib; first compound 8 µM): 0.774 | relative viability (SGI-1776 + Tozasertib; first compound 0.08 µM): 0.626 | relative viability (SGI-1776 + Tozasertib; first compound 0.8 µM): 0.521 | relative viability (SGI-1776 + Tozasertib; first compound 2.53 µM): 0.452 | relative viability (SGI-1776 + Tozasertib; first compound 8 µM): 0.373 | relative viability (Entinostat + Navitoclax; first compound 0.02 µM): 1.05 | relative viability (Entinostat + Navitoclax; first compound 0.06325 µM): 0.954 | relative viability (Entinostat + Navitoclax; first compound 0.2 µM): 0.806 | relative viability (Entinostat + Navitoclax; first compound 0.6325 µM): 0.451 | relative viability (Entinostat + Navitoclax; first compound 2 µM): 0.332 | relative viability (Entinostat + Pemetrexed; first compound 0.02 µM): 0.422 | relative viability (Entinostat + Pemetrexed; first compound 0.06325 µM): 0.437 | relative viability (Entinostat + Pemetrexed; first compound 0.2 µM): 0.407 | relative viability (Entinostat + Pemetrexed; first compound 0.6325 µM): 0.358 | relative viability (Entinostat + Pemetrexed; first compound 2 µM): 0.374

NCI-H1651
relative viability (SGI-1776 + Bortezomib; first compound 0.08 µM): 0.976 | relative viability (SGI-1776 + Bortezomib; first compound 0.8 µM): 0.923 | relative viability (SGI-1776 + Bortezomib; first compound 2.53 µM): 0.874 | relative viability (SGI-1776 + Bortezomib; first compound 8 µM): 0.889 | relative viability (SGI-1776 + Tozasertib; first compound 0.08 µM): 0.619 | relative viability (SGI-1776 + Tozasertib; first compound 0.8 µM): 0.642 | relative viability (SGI-1776 + Tozasertib; first compound 2.53 µM): 0.31 | relative viability (SGI-1776 + Tozasertib; first compound 8 µM): 0.344 | relative viability (Entinostat + Navitoclax; first compound 0.02 µM): 1.02 | relative viability (Entinostat + Navitoclax; first compound 0.06325 µM): 1.06 | relative viability (Entinostat + Navitoclax; first compound 0.2 µM): 1.09 | relative viability (Entinostat + Navitoclax; first compound 0.6325 µM): 0.709 | relative viability (Entinostat + Navitoclax; first compound 2 µM): 0.273 | relative viability (Entinostat + Pemetrexed; first compound 0.02 µM): 0.715 | relative viability (Entinostat + Pemetrexed; first compound 0.06325 µM): 0.777 | relative viability (Entinostat + Pemetrexed; first compound 0.2 µM): 0.655 | relative viability (Entinostat + Pemetrexed; first compound 0.6325 µM): 0.639 | relative viability (Entinostat + Pemetrexed; first compound 2 µM): 0.435

NCI-H647
relative viability (SGI-1776 + Bortezomib; first compound 0.08 µM): 1.24 | relative viability (SGI-1776 + Bortezomib; first compound 0.8 µM): 0.964 | relative viability (SGI-1776 + Bortezomib; first compound 2.53 µM): 0.888 | relative viability (SGI-1776 + Bortezomib; first compound 8 µM): 0.837 | relative viability (SGI-1776 + Tozasertib; first compound 0.08 µM): 0.389 | relative viability (SGI-1776 + Tozasertib; first compound 0.8 µM): 0.198 | relative viability (SGI-1776 + Tozasertib; first compound 2.53 µM): 0.175 | relative viability (SGI-1776 + Tozasertib; first compound 8 µM): 0.175 | relative viability (Entinostat + Navitoclax; first compound 0.02 µM): 0.96 | relative viability (Entinostat + Navitoclax; first compound 0.06325 µM): 0.995 | relative viability (Entinostat + Navitoclax; first compound 0.2 µM): 0.928 | relative viability (Entinostat + Navitoclax; first compound 0.6325 µM): 0.374 | relative viability (Entinostat + Navitoclax; first compound 2 µM): 0.0716 | relative viability (Entinostat + Pemetrexed; first compound 0.02 µM): 0.192 | relative viability (Entinostat + Pemetrexed; first compound 0.06325 µM): 0.184 | relative viability (Entinostat + Pemetrexed; first compound 0.2 µM): 0.161 | relative viability (Entinostat + Pemetrexed; first compound 0.6325 µM): 0.0878 | relative viability (Entinostat + Pemetrexed; first compound 2 µM): 0.0714
